Where two headings read alike, the source gives them in different places.
What was measured:
P. aeruginosa ATCC 27853 [1] = experiment: MIC and levofloxacin potentiation (broth microdilution); type: cell-based, Pseudomonas aeruginosa; details: for MIC: Pseudomonas aeruginosa, ATCC27853
P. aeruginosa ATCC 27853 [2] = experiment: Neutropenic murine thigh infection model; type: in vivo, CD-1 mice
Procedure: Female CD-1 mice (6–8 weeks old; 22 ± 2 g) were obtained from Envigo Laboratories, quarantined for at least 3 days, and housed 5 per cage in accordance with the approved IACUC protocol (IACUC-2017-0049). Neutropenia was induced by intraperitoneal (IP) administration of cyclophosphamide (Cytoxan) at 150 mg/kg on day 4 and 100 mg/kg on day 1 prior to infection.
Mice were infected intramuscularly (IM) in the right thigh with 0.1 mL of bacterial suspension containing approximately 1 × 10^5–10^6 CFU/mL. […] At 2 h or 24 h post-infection, mice were euthanized by CO2 asphyxiation, and thighs were aseptically excised and placed in 2 mL sterile phosphate-buffered saline (PBS) on ice. Tissue homogenization was performed using a Polytron PT10-35 (12 mm aggregate, Kinematica, Malters, Switzerland).
Plates were incubated overnight at 37 °C, and colonies were enumerated the following day.

[3] = tested on: multidrug-resistant P. aeruginosa clinical isolates from the CDC-FDA; experiment: Levofloxacin MIC potentiation, CDC-FDA isolates; type: cell-based, Pseudomonas aeruginosa; details: for Levofloxacin MIC fold difference, +EPI / Levofloxacin MIC, +EPI: EPI […] (TXA11114, TXA09155) or 50 μg/mL (MC-04,124, PAβN)
Procedure: In a comparative study, the levofloxacin-potentiating activity of TXA11114 was evaluated alongside the well-characterized EPIs PAβN and MC-04,124 using P. aeruginosa clinical isolates obtained from the CDC and FDA Antimicrobial Resistance Isolate Bank and the Walter Reed Army Institute of Research (WRAIR). […] While PAβN has been widely studied in laboratory strains, its activity against the CDC/FDA P. aeruginosa panel has been reported only sparingly, limiting direct cross-study comparisons.
MIC assays for potentiation of antimicrobial activity against P. aeruginosa were performed as described previously.

in vivo = details: female, CD-1, mouse, 30 mg/kg
Procedure: The P. aeruginosa strain UNT034-1 (ATCC 27853) was used for infection studies. Female CD-1 mice (6–8 weeks old; 22 ± 2 g) were obtained from Envigo Laboratories (Indianapolis, IN, USA). All procedures were conducted in accordance with protocols approved by the University of North Texas Health Science Center (UNTHSC) Institutional Animal Care and Use Committee (protocol IACUC-2021-0003). Neutropenia was induced by intraperitoneal (i.p.) injection of cyclophosphamide (Cytoxan) at 150 mg/kg on day 4 and 100 mg/kg on day 1 before infection. Mice were anesthetized by i.p. injection of ketamine (40 mg/kg) and xylazine (6 mg/kg) and intranasally inoculated with 0.05 mL of the prepared P. aeruginosa suspension by placing droplets onto the nares and allowing inhalation. Following inoculation, mice were returned to cages for recovery. […] At predetermined time points (0.083, 0.25, 0.5, 1, 2, 4, 8, and 24 h), groups of three mice were euthanized by CO2 asphyxiation. Blood was collected by cardiac puncture into tubes containing EDTA or serum separator gel, centrifuged at 4 °C, and plasma or serum was harvested within 30 min of collection. Bronchoalveolar lavage fluid (BALF) was collected to determine drug concentrations at the site of infection. Briefly, 1.2 mL of sterile 0.9% NaCl was instilled into the lungs via the trachea and gently withdrawn. The epithelial lining fluid (ELF) dilution factor was determined by the blood urea nitrogen (BUN) method. Plasma and BALF samples were stored at −80 °C until analysis. Drug concentrations were quantified by LC-MS/MS using a Surveyor HPLC system coupled to a TSQ Quantum Ultra triple-quadrupole mass spectrometer (Thermo Scientific). Separation was achieved on a Phenomenex Kinetex PFP column (50 × 2.1 mm, 2.6 µm) with a mobile phase gradient of water (0.1% formic acid, A) and acetonitrile (0.1% formic acid, B) at 0.5 mL/min. The gradient proceeded from 10% to 90% B over 4 min, held for 1 min, and re-equilibrated to initial conditions. The column oven was maintained at 30 °C. […] Samples (50 µL plasma or BALF) were spiked with 10 µL of internal standard in methanol, precipitated with 150 µL acetonitrile, vortexed, sonicated for 10 min, and centrifuged at 14,500 rpm for 5 min. A 100 µL aliquot of the supernatant was transferred to autosampler vials, and 10 µL was injected for analysis. Concentration-time data were analyzed using noncompartmental methods (PK Solutions v2.0; Summit Research Services, Montrose, CO, USA). Parameters including area under the concentration-time curve (AUC0-t), maximum concentration (Cmax), time to Cmax (Tmax), apparent volume of distribution (Vd), systemic clearance (CL), and terminal half-life (t½) were calculated. Data are presented as means ± standard deviation (SD) for three animals per time point.

[4] = +24 hr, TXA11114 30 mg/kg IV QID alone
[5] = combined CDC/FDA and WRAIR MDR isolate sets

NCC(F)C[C@@H](N)CNC(=O)c1cc2ccc(-c3ccc(F)cc3)cc2[nH]1 (stereo partly drawn) [TXA11114, N-((2R)-2,5-diamino-4-fluoropentyl)-6-(4-fluorophenyl)-1H-indole-2-carboxamide]
Fold MIC reduction [LVX/EPI-LVX] (P. aeruginosa ATCC 27853 [1]; EPI at […], ATCC 27853): 8 fold | MIC (P. aeruginosa ATCC 27853 [1]; ATCC 27853 parent strain (Table S1), read-out: MIC): 100 µg/mL | MIC (P. aeruginosa ATCC 27853 [1]; EPI alone, ATCC 27853, read-out: EPI MIC): 100 µg/mL | LVX MIC (+EPI) (P. aeruginosa ATCC 27853 [1]; levofloxacin MIC with EPI at […], ATCC 27853): 0.125 µg/mL | Effect of EPI alone on bacterial burden, thigh (P. aeruginosa ATCC 27853 [2]; 30 mg/kg, IV, QID): had no impact on bacterial burden | Mean Log10 CFU (thigh) (P. aeruginosa ATCC 27853 [2]; [4]): 8.95 log10 CFU | Mean Log10 CFU Change vs +2 hr Control, Δlog10 (treatment-baseline), thigh (P. aeruginosa ATCC 27853 [2]; [4]): 2.87 log10 CFU | Mean Log10 CFU Change vs +24 hr Control, thigh (P. aeruginosa ATCC 27853 [2]; TXA11114 30 mg/kg IV QID alone): 0.13 log10 CFU | CFU reduction by combination, exceeding levofloxacin alone (P. aeruginosa ATCC 27853 [2]; murine thigh and lung infection models): > 1 log10 CFU | Levofloxacin MIC fold difference, +EPI ([3]; AR-0229): 32 fold | Levofloxacin MIC, +EPI ([3]; AR-0229): 2 µg/mL | Levofloxacin MIC fold difference, +EPI ([3]; AR-0232): 16 fold | Levofloxacin MIC, +EPI ([3]; AR-0232): 0.5 µg/mL | Levofloxacin MIC fold difference, +EPI ([3]; AR-0233): 8 fold | Levofloxacin MIC, +EPI ([3]; AR-0233): 0.5 µg/mL | Levofloxacin MIC fold difference, +EPI ([3]; AR-0234): 32 fold | Levofloxacin MIC, +EPI ([3]; AR-0234): 0.25 µg/mL | Levofloxacin MIC fold difference, +EPI ([3]; AR-0239): 4 fold | Levofloxacin MIC, +EPI ([3]; AR-0239): 8 µg/mL | Levofloxacin MIC fold difference, +EPI ([3]; AR-0242): 4 fold | Levofloxacin MIC, +EPI ([3]; AR-0242): 2 µg/mL | Levofloxacin MIC fold difference, +EPI ([3]; AR-0244): 8, (8) fold | Levofloxacin MIC, +EPI ([3]; AR-0244): 8, (8) μg/mL | Levofloxacin MIC fold difference, +EPI ([3]; AR-0246): 8, (8) fold | Levofloxacin MIC, +EPI ([3]; AR-0246): 8, (8) μg/mL | Levofloxacin MIC fold difference, +EPI ([3]; AR-0248): 8 fold | Levofloxacin MIC, +EPI ([3]; AR-0248): 2 µg/mL | Levofloxacin MIC fold difference, +EPI ([3]; AR-0249): 16 fold | Levofloxacin MIC, +EPI ([3]; AR-0249): 4 µg/mL | Levofloxacin MIC fold difference, +EPI ([3]; AR-0252): 8 fold | Levofloxacin MIC, +EPI ([3]; AR-0252): 4 µg/mL | Levofloxacin MIC fold difference, +EPI ([3]; AR-0253): 16 fold | Levofloxacin MIC, +EPI ([3]; AR-0253): 0.125 µg/mL | Levofloxacin MIC fold difference, +EPI ([3]; AR-0264): 16 fold | Levofloxacin MIC, +EPI ([3]; AR-0264): 4 µg/mL | Share of CDC isolates with levofloxacin MIC reduced ≥8-fold (potentiated) ([3]; TXA11114 […], PAβN and MC-04,124 50 µg/mL): approximately 85% | Share of isolates in which levofloxacin was potentiated [3, 5]: > 90% | Share of strains restored to levofloxacin susceptibility at or below EUCAST breakpoint (≤2 μg/mL) [3, 5]: approximately 60% | Reductions in levofloxacin MIC values in many strains ([3]; diverse MDR clinical isolates): 4- to 32 fold | AUC(0-t) (in vivo; BALF AUC 0-t): 13200 ng·h/mL | Tmax (in vivo; BALF Tmax): 4 h | AUC(0-t) (in vivo; Plasma AUC 0-t): 30700 ng·h/mL | Cmax (in vivo; Plasma Cmax): 13000 ng/mL | half-life (in vivo; Plasma Half-life): 1.84 h | Tmax (in vivo; Plasma Tmax): 0.083 h | Vd (in vivo; Plasma Vd): 2.5 L/kg

— article PMC13114161 (Antibiotics, 2026)
